Measurements from patent US20090082427A1, “Composition comprising wortmannin and its topical use for reducing human hair growth” (Reckitt Benckiser (UK) Limited, priority 2005, published 2009).

What was measured:
Assay type in all cases: cell-based, human
[1] = test system: dermal fibroblasts; test: cell proliferation of dermal fibroblasts, cell number after 8 days; settings: wortmannin 70 μm in medium, CV (medium + DMSO vehicle) = 100
Description: (§1) A study was carried out to assess the effects of wortmannin on cell proliferation for dermal fibroblasts, follicular dermal papilla fibroblasts derived from 5 normal adults (3 females and 2 males).
(§2) A composition was prepared comprising wortmannin at 10 milli-molar in a vehicle of dimethyl sulfoxide (DMSO). The levels of wortmannin were such that when the composition was added to the growth medium in the experiments, the level of wortmannin in the experimental medium was 50, 70, 100 or 140 micro-molar and the respective level of DMSO was 0.5%, 0.7%, 1.0%, 1.4% by weight.
(§3) The control experiments were carried out using as the growth medium CM (control medium only as detailed below) and CV (control medium containing the DMSO vehicle but free of wortmannin). The experiments using the wortmannin composition were carried out using the wortmannin compositions in the control medium.
(§4) For experiments with dermal fibroblasts and follicular dermal papilla fibroblasts, Control Medium was RPMI 1640 media supplemented with penicillin/streptomycin, L-glutamine and Foetal Calf Serum.
(§5) Results in terms of percentage cell number change after 8 days of the cells/follicles in the compositions were as follows in table 1.

[2] = test system: follicular dermal papilla fibroblasts; test: cell proliferation of follicular dermal papilla fibroblasts, cell number after 8 days; settings: wortmannin 70 μm in medium, CV = 100
Description: as §1, §2, §3, §4, §5

[3] = test system: hair follicle keratinocytes; test: cell proliferation of hair follicle keratinocytes, cell number after 8 days; settings: CV = 100
Description: A study carried out to assess the effects of wortmannin on cell proliferation for hair follicle keratinocytes was performed on cells from 1 normal healthy individual.
as §2, §3
For experiments with hair follicle keratinocytes, Control Medium was keratinocyte serum-free medium (KSF-M) medium supplemented with penicillin/streptomycin, L-glutamine, epidermal growth factor and bovine pituitary extract.
as §5

[4] = test system: Anagen (IV) intact hair follicles; test: growth of isolated intact Anagen (IV) hair follicles, length increase after 8 days; settings: CM 26, CV 9
Description: A study was carried out to assess the effects of wortmannin on growth of Anagen (IV) intact hair follicles isolated intact from 2 females.
as §2, §3
For experiments with intact hair follicle, Control Medium was Williams E medium supplemented with fungizone, penicilin/streptomycin, L-glutamine, insulin-like growth factor and hydrocortisone.
as §5

For `COC[C@H]1OC(=O)c2coc3c2[C@@]1(C)C1=C(C3=O)[C@@H]2CCC(=O)[C@@]2(C)C[C@H]1OC(C)=O` [wortmannin, 11-(acetyloxy)-1,6b,7,8,9a,10,11,11b-octahydro-1-(methoxymethyl)-9a,11b-di-methyl-[1S-(1α, 6bα,9aβ,11α, 11bβ)]-3H-furo[4,3,2-de]indeno[4,5-h]-2-benzopyran-3,6,9-trione], the “Dermal fibroblasts percentage cell number (normalized on CV results)” value [1] was 25%, the “dermal papilla fibroblasts percentage cell number (normalized on CV results)” value [2] was 34% and the “Hair follicle keratinocytes percentage cell number (normalized on CV results)” value ([3]; wortmannin 50 μm in medium) was 75%. For the same molecule, the “Hair follicle keratinocytes percentage cell number (normalized on CV results)” value ([3]; wortmannin 70 μm in medium) was 40%, the “Hair follicle keratinocytes percentage cell number (normalized on CV results)” value ([3]; wortmannin 100 μm in medium) was 30% and the “Whole hair follicles (length increase in %)” value ([4]; wortmannin 70 μm in medium) was 4%. The “Whole hair follicles (length increase in %)” value ([4]; wortmannin 140 μm in medium) was 4%.
